Measured values as given in patent publication US20240254118A1, “PRMT5 INHIBITORS AND USES THEREOF” (Gilead Sciences, Inc., priority 2022, published 2024).

Tests used:
[1] = tested on: HCT116 MTAP-deleted cells; experiment: Cell viability assay (CellTiter-Glo, 7 days), HCT116 MTAP-deleted; details: Homo sapiens, HCT-116, 168 h
[2] = tested on: SDMA signal (PRMT5 inhibition) in HCT116 MTAP-deleted cells; experiment: Symmetric di-methyl arginine image-based high content screen assay (SDMA assay), HCT116 MTAP-deleted; format: cell-based; details: SDMA assay; for EC50: Homo sapiens, HCT-116, 72 h, 3 days of treatment, cell line not given, taken as HCT116 MTAP-deleted, read-out: EC50 (SDMA assay); for EC50 selectivity (SDMA assay): taken as HCT116 WT versus MTAP-deleted
Outline: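 Read-out: per-cell mean SDMA immunofluorescence (Alexa Fluor 488 secondary), cells segmented by DAPI on a high-content imager. Compound exposure in HCT116 MTAP-deleted cells lasted until fixation on Day 3; overnight 4° C primary anti-SDMA antibody staining.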

Row | SMILES | EC50 [2] [nM] | EC50 selectivity (SDMA assay) [2] | CC50 [1] [nM]
1 | Cn1ncc2c(N)nc3ccc(C(=O)N(Cc4cn5cc(C#N)ccc5n4)N4CCCC4=O)cc3c21 [Example 88, 4-Amino-N-[(6-cyanoimidazo[1,2-a]pyridin-2-yl)methyl]-1-methyl-N-(2-oxopyrrolidin-1-yl)pyrazolo[4,3-c]quinoline-8-carboxamide] | > 5 | 221 | 100 to 1000
2 | Cn1ncc2c(N)nc3ccc(C(=O)N(Cc4cn5cc(F)ccc5n4)N4CCCCC4=O)cc3c21 [Example 90, 4-Amino-N-[(6-fluoroimidazo[1,2-a]pyridin-2-yl)methyl]-1-methyl-N-(2-oxo-1-piperidyl)pyrazolo[4,3-c]quinoline-8-carboxamide] | 1 to 5 | 53 | < 100
3 | CCC(=O)N(C)N(Cc1cn2cc(F)ccc2n1)C(=O)c1ccc2nc(N)c3cnn(C)c3c2c1 [Example 91, 4-Amino-N-[(6-fluoroimidazo[1,2-a]pyridin-2-yl)methyl]-N′,1-dimethyl-N′-propanoyl-pyrazolo[4,3-c]quinoline-8-carbohydrazide] | 1 to 5 | 143 | < 100
4 | CC(=O)N(C)N(Cc1ccc2nsnc2c1)C(=O)c1ccc2nc(N)c3cnn(C)c3c2c1 [Example 96, N′-acetyl-4-amino-N-(2,1,3-benzothiadiazol-5-ylmethyl)-N′,1-dimethyl-pyrazolo[4,3-c]quinoline-8-carbohydrazide] | 1 to 5 | 290 | < 100
5 | CC(=O)N(C)N(Cc1nc2cc(Cl)ccc2o1)C(=O)c1ccc2nc(N)c3cnn(C)c3c2c1 [Example 97, N′-acetyl-4-amino-N-((5-chlorobenzo[d]oxazol-2-yl)methyl)-N′,1-dimethyl-1H-pyrazolo[4,3-c]quinoline-8-carbohydrazide] | 1 to 5 | 98 | < 100
6 | CN(C(=O)C1CC(F)(F)C1)N(Cc1ccc(C(F)(F)F)cn1)C(=O)c1ccc2nc(N)c3cnn(C)c3c2c1 [Example 99, 4-amino-N′-(3,3-difluorocyclobutane-1-carbonyl)-N′,1-dimethyl-N-((5-(trifluoromethyl)pyridin-2-yl)methyl)-1H-pyrazolo[4,3-c]quinoline-8-carbohydrazide] | 1 to 5 | 269 | < 100
7 | CN(C(=O)C12CC(C1)C2)N(Cc1ccc(C(F)(F)F)cn1)C(=O)c1ccc2nc(N)c3cnn(C)c3c2c1 [Example 101, 4-amino-N′-(bicyclo[1.1.1]pentane-1-carbonyl)-N′,1-dimethyl-N-[[5-(trifluoromethyl)-2-pyridyl]methyl]pyrazolo[4,3-c]quinoline-8-carbohydrazide] | 1 to 5 | 108 | < 100
8 | CN(C(=O)C12CC(F)(C1)C2)N(Cc1ccc(C(F)(F)F)cn1)C(=O)c1ccc2nc(N)c3cnn(C)c3c2c1 [Example 102, 4-amino-N′-(3-fluorobicyclo[1.1.1]pentane-1-carbonyl)-N′,1-dimethyl-N-[[5-(trifluoromethyl)-2-pyridyl]methyl]pyrazolo[4,3-c]quinoline-8-carbohydrazide] | 1 to 5 | 252 | < 100
9 | CC(=O)N1CC(C(=O)N(C)N(Cc2ccc(C(F)(F)F)cn2)C(=O)c2ccc3nc(N)c4cnn(C)c4c3c2)C1 [Example 103, N′-(1-acetylazetidine-3-carbonyl)-4-amino-N′,1-dimethyl-N-[[5-(trifluoromethyl)-2-pyridyl]methyl]pyrazolo[4,3-c]quinoline-8-carbohydrazide] | > 5 | <500 | > 1000
10 | CN(C(=O)C1CCC1)N(Cc1ccc(C(F)(F)F)nn1)C(=O)c1ccc2nc(N)c3cnn(C)c3c2c1 [Example 104, 4-amino-N′-(cyclobutanecarbonyl)-N′,1-dimethyl-N-((6-(trifluoromethyl)pyridazin-3-yl)methyl)-1H-pyrazolo[4,3-c]quinoline-8-carbohydrazide] | 1 to 5 | 173 | < 100

The next lines start with results.

Row | EC50 [2] [nM] | EC50 selectivity (SDMA assay) [2] | SMILES | CC50 [1] [nM]
11 | 1 to 5 | 104 | CC(=O)N(C)N(Cc1nc2cc(C(F)(F)F)ccc2s1)C(=O)c1cc2c(cc1Cl)nc(N)c1cnn(C)c12 [Example 87, N′-Acetyl-4-amino-7-chloro-N′,1-dimethyl-N-[[5-(trifluoromethyl)-1,3-benzothiazol-2-yl]methyl]pyrazolo[4,3-c]quinoline-8-carbohydrazide] | 100 to 1000
12 | < 1 | 204 | Cn1ncc2c(N)nc3ccc(C(=O)N(Cc4nc5cc(C(F)(F)F)ccc5s4)N4CCOC4=O)cc3c21 [Example 89, 4-Amino-1-methyl-N-(2-oxooxazolidin-3-yl)-N-[[5-(trifluoromethyl)-1,3-benzothiazol-2-yl]methyl]pyrazolo[4,3-c]quinoline-8-carboxamide] | < 100
13 | < 1 | 257 | CC(=O)N(C)N(Cc1nc2cc(F)ccc2s1)C(=O)c1ccc2nc(N)c3cnn(C)c3c2c1 [Example 92, N′-Acetyl-4-amino-N-[(5-fluoro-1,3-benzothiazol-2-yl)methyl]-N′,1-dimethyl-pyrazolo[4,3-c]quinoline-8-carbohydrazide] | < 100
14 | < 1 | 226 | Cn1ncc2c(N)nc3ccc(C(=O)N(Cc4nc5cc(Cl)ccc5s4)N4CCCCC4=O)cc3c21 [Example 93, 4-amino-N-[(5-chloro-1,3-benzothiazol-2-yl)methyl]-1-methyl-N-(2-oxo-1-piperidyl)pyrazolo[4,3-c]quinoline-8-carboxamide] | < 100
15 | < 1 | 133 | Cn1ncc2c(N)nc3ccc(C(=O)N(Cc4cc5ccccn5n4)N4CCCCC4=O)cc3c21 [Example 94, 4-amino-1-methyl-N-(2-oxo-1-piperidyl)-N-(pyrazolo[1,5-a]pyridin-2-ylmethyl)pyrazolo[4,3-c]quinoline-8-carboxamide] | < 100
16 | < 1 | 205 | Cn1ncc2c(N)nc3ccc(C(=O)N(Cc4ccc5nsnc5c4)N4CCCC4=O)cc3c21 [Example 95, 4-amino-N-(2,1,3-benzothiadiazol-5-ylmethyl)-1-methyl-N-(2-oxopyrrolidin-1-yl)pyrazolo[4,3-c]quinoline-8-carboxamide] | < 100
17 | < 1 | 120 | CC(=O)N(C)N(Cc1ccc(C2CC2)cc1)C(=O)c1ccc2nc(N)c3cnn(C)c3c2c1 [Example 98, N′-acetyl-4-amino-N-(4-cyclopropylbenzyl)-N′,1-dimethyl-1H-pyrazolo[4,3-c]quinoline-8-carbohydrazide] | < 100
18 | < 1 | 7 | CN(C(=O)c1ncco1)N(Cc1ccc(C(F)(F)F)cn1)C(=O)c1ccc2nc(N)c3cnn(C)c3c2c1 [Example 100, N′-(4-amino-1-methyl-1H-pyrazolo[4,3-c]quinoline-8-carbonyl)-N-methyl-N′-((5-(trifluoromethyl)pyridin-2-yl)methyl)oxazole-2-carbohydrazide] | < 100
19 | < 1 | 15 | CN(C(=O)c1cocn1)N(Cc1ccc(C(F)(F)F)cn1)C(=O)c1ccc2nc(N)c3cnn(C)c3c2c1 [Example 105, N′-(4-amino-1-methyl-1H-pyrazolo[4,3-c]quinoline-8-carbonyl)-N-methyl-N′-((5-(trifluoromethyl)pyridin-2-yl)methyl)oxazole-4-carbohydrazide] | < 100
20 | < 1 | 16 | CN(C(=O)c1cscn1)N(Cc1ccc(C(F)(F)F)cn1)C(=O)c1ccc2nc(N)c3cnn(C)c3c2c1 [Example 106, N′-(4-amino-1-methyl-1H-pyrazolo[4,3-c]quinoline-8-carbonyl)-N-methyl-N′-((5-(trifluoromethyl)pyridin-2-yl)methyl)thiazole-4-carbohydrazide] | < 100
21 | < 1 | 163 | CC(=O)N(N(Cc1ccc(C(F)(F)F)cn1)C(=O)c1ccc2nc(N)c3cnn(C)c3c2c1)C12CC(C1)C2 [Example 107, N′-acetyl-4-amino-N′-(1-bicyclo[1.1.1]pentanyl)-1-methyl-N-[[5-(trifluoromethyl)-2-pyridyl]methyl]pyrazolo[4,3-c]quinoline-8-carbohydrazide] | < 100
22 | < 1 | 70 | CN(C(=O)C1CCC1)N(Cc1ccc(C(F)(F)F)cn1)C(=O)c1ccc2nc(N)c3cnn(C)c3c2c1 [Example 108, 4-amino-N′-(cyclobutanecarbonyl)-N′,1-dimethyl-N-[[5-(trifluoromethyl)-2-pyridyl]methyl]pyrazolo[4,3-c]quinoline-8-carbohydrazide] | < 100
23 | < 1 | 12 | CN(C(=O)OCC(F)(F)F)N(Cc1ccc(C(F)(F)F)cn1)C(=O)c1ccc2nc(N)c3cnn(C)c3c2c1 [Example 109, 2,2,2-trifluoroethyl N-[(4-amino-1-methyl-pyrazolo[4,3-c]quinoline-8-carbonyl)-[[5-(trifluoromethyl)-2-pyridyl]methyl]amino]-N-methyl-carbamate] | < 100
24 | < 1 | 11 | CN(C(=O)OCC(F)F)N(Cc1ccc(C(F)(F)F)cn1)C(=O)c1ccc2nc(N)c3cnn(C)c3c2c1 [Example 110, 2,2-difluoroethyl N-[(4-amino-1-methyl-pyrazolo[4,3-c]quinoline-8-carbonyl)-[[5-(trifluoromethyl)-2-pyridyl]methyl]amino]-N-methyl-carbamate] | < 100
